Measured values published in patent publication US20220088016A1, “CANCER TREATMENT USING MULTI-TARGETED KINASE INHIBITOR IN COMBINATION OF PROTEIN KINASE BIOMARKERS” (ZHEJIANG CROWNMAB BIOTECH CO. LTD., priority 2019, published 2022).
Where two headings read alike, the source gives them in different places.

Key:
BaF3 hCSF1R cell line = experiment: Proliferation of engineered BaF3 hCSF1R cell line (CTG assay); type: cell-based
Procedure: (§1) Two syngeneic cell lines M-NFS-60 and RAW264.7 and engineered BaF3 hCSFIR cell line were starved and then tested with CBT-102 and other test articles for 3 days in the temperature of 37° C., 5% CO2 and 95% humidity. The cell viability was then detected using CTG assay. The software of GraphPad Prism was used to calculate IC50.
(§2) CSF-1 dependent mouse myeloid M-NFS-60 cells were employed as target cells while a CSF-1 independent cell line Raw 264.7 was used as a negative control. In addition to CBT-102, the study also included 3 CSF-1R inhibitors: GW2580, BLZ945 and Pexidartinib.

M-NFS-60 cells = experiment: Proliferation of M-NFS-60 cells (CTG assay); type: cell-based, mouse; conditions: M-NFS-60 (CSF-1 dependent), 3 days
Procedure: as §1, §2

RAW264.7 cells = experiment: Proliferation of RAW264.7 cells (CTG assay); type: cell-based; conditions: RAW264.7 (CSF-1 independent, negative control), 3 days
Procedure: as §1, §2

| IC50 (BaF3 hCSF1R cell line; engineered BaF3 hCSF1R, 3 days, CTG, read-out: IC50) [nM] | SMILES | IC50 (BaF3 hCSF1R cell line; Mus musculus, BaF3, 72 h) [nM] | Max inh. (M-NFS-60 cells) [%] | IC50 (M-NFS-60 cells; Mus musculus, 72 h) [nM] | IC50 (RAW264.7 cells; Mus musculus, 72 h) [nM] | Max inh. (RAW264.7 cells) [%] | IC50 (M-NFS-60 cells) [nM] | IC50 (RAW264.7 cells) [nM] |
| --- | --- | --- | --- | --- | --- | --- | --- | --- |
|  | Cc1cc2cc(Oc3ccnc(Nc4cccc(CS(=O)(=O)NCCN(C)C)c4)n3)ccc2[nH]1 [sulfatinib] | 1330 |  |  |  |  |  |  |
|  | CNC(=O)c1cc(Oc2ccc3nc(N[C@@H]4CCCC[C@H]4O)sc3c2)ccn1 [BLZ945] |  | 99.08 | 3020 | > 30000 | 24.65 |  |  |
|  | FC(F)(F)c1ccc(CNc2ccc(Cc3c[nH]c4ncc(Cl)cc34)cn2)cn1 [PLX3397] |  | 99.32 | 348 | 16400 | 95.16 |  |  |
| 279 | COc1ccc(COc2ccc(Cc3cnc(N)nc3N)cc2OC)cc1 [GW2580] |  | 99.02 |  |  | 81.91 | 1140 | 4060 |
